From US20190112357A1, “PREVENTION OF PROTEIN DISULFIDE BOND REDUCTION” (MedImmune, LLC, priority 2016, published 2019)

Tests used:
[1] = molecular target: T1, recombinant mammalian GR/GSSG (Homo sapiens, UniProt P00390); assay: Reduction of purified mAb B by recombinant GR/GSSG, capillary electrophoresis; type: biochemical
T1 construct: purchased Abcam
T1 sequence (P00390 44-522): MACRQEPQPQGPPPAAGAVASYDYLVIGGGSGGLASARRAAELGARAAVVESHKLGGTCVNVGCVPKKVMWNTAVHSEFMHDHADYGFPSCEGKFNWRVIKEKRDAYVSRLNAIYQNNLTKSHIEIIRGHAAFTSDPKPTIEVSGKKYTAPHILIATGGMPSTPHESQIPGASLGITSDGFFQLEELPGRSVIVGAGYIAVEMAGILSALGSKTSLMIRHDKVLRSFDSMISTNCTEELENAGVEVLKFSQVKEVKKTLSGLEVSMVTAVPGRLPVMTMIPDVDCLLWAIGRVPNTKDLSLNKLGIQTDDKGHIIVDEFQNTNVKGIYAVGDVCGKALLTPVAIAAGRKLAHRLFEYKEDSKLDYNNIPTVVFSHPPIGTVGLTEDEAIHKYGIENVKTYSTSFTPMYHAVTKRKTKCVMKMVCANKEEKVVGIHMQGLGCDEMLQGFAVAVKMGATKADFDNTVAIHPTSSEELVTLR
Method: (§1) Antibody reduction in cell culture supernatant samples was measured by detecting the presence of reduced species via capillary electrophoresis using standard procedures on a 2100 Bioanalyzer system (Agilent Technologies, Santa Clara, Calif.). Samples were diluted 1-6 fold depending on titer and analyzed under non-reducing conditions following 2100 Bioanalyzer standard protocols. Supernatant samples from 3 L bioreactors were stored frozen until all samples had been acquired and were ready for analysis. Samples were thawed on ice and analyzed immediately to evaluate the amount of reduced antibody in the reactor on each day of the run.
Using the same approach with recombinant mammalian enzymes, the glutathione system was evaluated by spiking mAb B into five solutions containing: 1) no enzyme, 2) 1 mM GSSG (oxidized glutathione), 3) 0.2 μM GR (glutathione reductase), 4) 0.2 μM GR with 1 mM GSSG, and 5) 0.02 μM GR with 1 mM GSSG. […] The results indicated a minimal mAb B reduction in the solutions containing GSSG alone. This is the result of an impurity in the GSSG. […] was reduced in the solutions containing both GR and GSSG.
(§2) To confirm that the activity from a particular reductase system can translate into reduced antibody, a second method was developed to determine the impact of each reductase system on antibody reduction. The principle of the reduction assay is similar to the reductase activity assay described above. The percent of protein reduction without an inhibitor was compared to the percent of protein reduction in the presence of specific inhibitors for GR or TrxR1. In this assay, purified mAb B was spiked into solutions containing recombinant mammalian TrxR1/Trx1 or recombinant mammalian GR/GSSG and stored in an oxygen-free environment overnight. The percent of reduced mAb B antibody was evaluated using capillary electrophoresis, as set forth above.

GR/GSSG = molecular target: T2, GR/GSSG (Homo sapiens, UniProt P00390); assay: DTNB reductase activity assay, recombinant GR/GSSG; type: biochemical; conditions: ATG concentrations lower than 5 μM
T2 construct: purchased Abcam
T2 sequence (P00390 44-522): T1 sequence (P00390 44-522)
Method: (§3) Briefly, culture samples were thawed on ice. […] The samples were then allowed to incubate 5 minutes.
(§4) Activity of the reductases was calculated as follows. […] The activity was then calculated by the following equation: […]

thioredoxin system = assay: Reductase activity assay, day 14 culture samples, thioredoxin system; type: biochemical, Chinese Hamster; conditions: day 14, 0.5 μM ATG
Method: The total reductase activity was determined in the absence of any inhibitor. […] Thus, the difference in activity between a sample with ATG, and a sample without any inhibitor, indicates the amount of reductase activity contributed the thioredoxin system. […] Thus, the difference in reductase activity between a sample with 2-AAPA, and a sample without any inhibitor, indicates the amount of reductase activity contributed by the glutathione system. Although ATG and 2-AAPA are provided as exemplary specific inhibitors, other specific inhibitors discussed above can be employed in this assay instead of ATG and 2-AAPA.
as §3, §4
The reductase activities of the thioredoxin and glutathione systems were evaluated in day 14 culture samples of the same CHO cell lines A, B, C, and D, using the previously evaluated specific inhibitors 2-AAPA and ATG at 100 μM and 0.5 μM respectively. Data in FIG. 6A were normalized to viable cell density. Cell lines A, B, and C were described in Example 6, above. Cell line D is the cell line CHO CAT-S, and is stably transfected to produce an IgG1 mAb (mAb D).

[2] = molecular target: T3, recombinant mammalian TrxR1/Trx1 (Rattus norvegicus, UniProt O89049); assay: Reduction of purified mAb B by recombinant TrxR1/Trx1, capillary electrophoresis; type: biochemical, human (Trx1); conditions: 0.1 mM ATG, purified mAb B, overnight, oxygen-free
T3 construct: purchased Cayman Chemical (TrxR1); Abcam (Trx1)
T3 sequence (O89049 1-499): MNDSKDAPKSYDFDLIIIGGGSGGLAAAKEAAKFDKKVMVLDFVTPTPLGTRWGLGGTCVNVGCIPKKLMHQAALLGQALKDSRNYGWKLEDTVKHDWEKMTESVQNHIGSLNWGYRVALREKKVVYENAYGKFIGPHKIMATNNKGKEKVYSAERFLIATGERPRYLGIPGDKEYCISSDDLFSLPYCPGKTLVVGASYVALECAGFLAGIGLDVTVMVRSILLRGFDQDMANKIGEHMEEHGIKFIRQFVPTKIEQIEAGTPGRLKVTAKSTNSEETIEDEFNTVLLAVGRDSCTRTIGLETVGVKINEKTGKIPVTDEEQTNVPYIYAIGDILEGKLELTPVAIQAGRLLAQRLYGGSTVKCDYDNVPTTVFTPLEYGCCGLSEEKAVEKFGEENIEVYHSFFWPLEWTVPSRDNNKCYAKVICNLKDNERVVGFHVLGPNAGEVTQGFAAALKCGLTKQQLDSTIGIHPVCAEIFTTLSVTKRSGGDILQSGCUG
Method: as §1
The role of each enzymatic system in antibody reduction was evaluated by determining the conditions under which these reductase systems cause antibody reduction. Using purified recombinant mammalian reductases, the thioredoxin system was evaluated by spiking purified mAb B into five solutions containing: 1) no enzymes, 2) 1 μM TrxR1, 3) 0.1 μM TrxR1, 4) […], and 5) 0.1 μM TrxR1+2.5 μM Trx1. All samples contained 0.4 mM NADPH and were stored at room temperature overnight. Digital gel-like images were obtained from microchip-based capillary electrophoresis analysis.
as §2

OC[C@H]1O[C@H]([S-])[C@H](O)[C@@H](O)[C@@H]1O.[Au+] [ATG, aurothioglucose]
antibody reduction in sample containing GR/GSSG ([1]; 0.1 mM ATG, purified mAb B, overnight, oxygen-free): complete reduction of the antibody | specificity in GR/GSSG samples at higher concentrations ([1]; 0.5 mM and 1 mM ATG, increasing intact antibody): no longer specific for the thioredoxin system | reductase activity of solutions containing GR/GSSG (GR/GSSG): unaffected | share of total reductase activity from the thioredoxin system (thioredoxin system; cell line A): 35% | share of total reductase activity from the thioredoxin system (thioredoxin system; cell line B): 60% | share of total reductase activity from the thioredoxin system (thioredoxin system; cell line C): 87% | share of total reductase activity from the thioredoxin system (thioredoxin system; cell line D): 60% | antibody reduction in sample containing TrxR1/Trx1 [2]: complete inhibition of antibody reduction
